Where “and” joins values, the source holds several entries; their conditions need not be identical. Equal entries are not always repeated.
Tested on: LC3-II
Test: Rat in vivo OHT model, Western blot of LC3-II
Conditions: in vivo OHT eyes, 3 weeks after microbead injection, relative units, control = 1.00; for LC3-II expression (FIG. 6B), individual experiments 1-4: single values
Procedure: Example 7. Rat in vivo OHT model induced by intracameral injection of microbeads—For induction of ocular hypertension (OHT) in vivo, sterile 6 μm polystyrene microbeads were injected into the anterior chamber of the left eye of each animal using a single-step, sclero-corneal tunnel approach with a 35G nanoneedle (FIG. 4A). […] After stabilization of elevated IOP, animals were randomly divided into 3 groups (non-treated OHT, AlloP injection, and ent-AlloP injection). AlloP and ent-AlloP were administered as a one-time intravitreal injection one week following bead injection. Non-treated OHT animals received sterile vehicle intravitreally. As a further control, vehicle was intravitreally injected 7 days after intracameral administration of 10 μl of PBS. Three weeks after bead injections, IOP was 26.7±3.7 mmHg in non-treated OHT eyes compared to 9.9±0.9 mmHg in control eyes.
Rat in vivo OHT model—8-week old male Sprague-Dawley rats were deeply anesthetized with an intraperitoneal injection of a mixture of medetomidine hydrochloride (Cat #133-17474, CAS. No 86347-15-1, Wako Pure Chemical Industries Ltd., Osaka, Japan, 0.15 mg/kg), midazolam (Cat #135-13791, CAS. No 58786-99-5, Wako Pure Chemical Industries Ltd., 2 mg/kg), and butorphanol tartrate (Cat #021-19001, CAS. No […], Wako Pure Chemical Industries Ltd., 2.5 mg/kg), and intraocular pressure was increased unilaterally to approximately 35 mmHg, by intracameral injection of polystyrene microbeads using a single-step, sclero-corneal tunnel approach with a 35G-gauge nanoneedle (#LNAN-3505LM, Saito Medical Instruments Inc., Tokyo, Japan) connected to 100 μl WPI Nanofil 100 microsyringe (World Precision Instruments, Inc., Sarasota, FL). Sterile 6 μm polystyrene microbeads in a 1×10^6 microbeads/ml solution (Molecular Probes, Eugene, OR, USA) were concentrated to obtain a 1×10^7 microbeads/ml solution. […] Ocular hypertension was monitored preoperatively, and at 3 days, 1 week, 2 weeks or 3 weeks after the beads were injected. IOP was measured using a laboratory tonometer (TonoLab, Icare, Finland). […]

| SMILES | LC3-II expression (FIG. 6B), Average (Average of 4) | LC3-II expression (FIG. 6B), individual experiments 1-4 |
| --- | --- | --- |
| CC(=O)[C@H]1CC[C@H]2[C@@H]3CC[C@H]4C[C@H](O)CC[C@]4(C)[C@H]3CC[C@]12C [AlloP, allopregnanolone] | 3.00 | 2.73 and 3.32 and 2.82 and 3.11 |
| CC(=O)[C@@H]1CC[C@@H]2[C@H]3CC[C@@H]4C[C@@H](O)CC[C@@]4(C)[C@@H]3CC[C@]21C [ent-AlloP, ent-allopregnanolone] | – | 4.96 and 4.97 and 4.27 and 5.04 |
